From patent US5594009A, “Fused pyrrolocarbazoles” (priority 1995, dated 1997)

Columns and labels:
[1] = tested on: choline acetyltransferase (ChAT) activity in dissociated rat embryonic spinal cord culture; assay: Spinal Cord ChAT Activity Assay; format: cell-based; conditions: ChAT measured after 48 hours
[2] = biological target: protein kinase C; assay: PKC Activity Inhibition Assay; format: biochemical
Protocol: Fused pyrrolocarbazoles inhibited the activity of protein kinase C (Table VI). The protein kinase C assay has been disclosed (Murakata et al., U.S. Pat. No. 4,923,986; Kikkawa et al., J. Biol. Chem. 257:13341-13348 (1982)). The assay was performed with several concentrations of fused pyrrolocarbazoles. The concentration at which protein kinase C was 50% inhibited (IC50) was determined.

[3] = tested on: indoleamine 2,3-dioxygenase (IDO) mRNA in THP-1 cells; assay: Inhibition of Induction By IFNγ of IDO mRNA; format: cell-based; conditions: Homo sapiens, IDO/GAPD mRNA ratio, 48 hours, read-out: IDO mRNA, Phosphorimager units, % of IFNγ-treated cells; for mrna remaining at 0.4 µM: compound 400 nM, IFNγ 400 units/ml
Protocol: Fused pyrrolocarbazoles in accordance with our invention were tested for their ability to inhibit the induction by IFNγ of indoleamine 2,3-dioxygenase (IDO) mRNA in THP-1 cells, a human monocyte cell line.
Cell Culture: THP-1 cells (American Type Culture Collection, Rockville, Md.), a human monocytic leukemia cell line, were grown in RPMI 1640 medium (Mediatech, Herndon Valley, Va.) with 50 μM 2-mercaptoethanol and 10% fetal bovine serum. Cells were plated in T75 culture flasks, at 4×10^4 cells/cm^2 in 10 ml of medium, and were immediately treated with fused pyrrolocarbazoles at various concentrations. After 30 minutes recombinant (E. coli) IFNγ (Boehringer Mannheim Corporation,Indianapolis, Ind.) was added at 200-400 units/ml. Cells were incubated (37° C., 5% CO2 /95% Air) for 48 hours after treatment.
RNA Isolation: Cells were pelleted by centrifugation (50× g, 7 min.) and medium was decanted. The cells were then washed two times with phosphate buffered saline pH 7.2 (PBS) (Mediatech, Herndon Valley, Va.). The washed cell pellet was lysed in 2 ml RNAzol B (Tel-Test, Inc., Friendswood, Tex.). RNA was isolated by chloroform extraction, precipitated, and washed following the "RNAzol B isolation of RNA" protocol accompanying this product. RNA was then solubilized in H2 O, and the concentration and purity were determined by reading the absorbance at A260 nm and A280 nm. Finally, the RNA was reprecipitated in ethanol, overnight at -20° C.
cDNA Probes: Indoleamine 2,3-dioxygenase (IDO) cDNA was received from Sohan L. Gupta, Ph. D. (Hipple Cancer Research Center, Dayton, Ohio) (see Da., W. & Gupta, S. L. 168 Biochem. Biophys. Res. Commun. 1, 1990 and Hassanain, H. H. et al. 268 J. Biol. Chem. 5077, 1993). Glyceraldehyde-3-phosphate dehydrogenase (GAPD) cDNA was obtained through American Type Culture Collection (Rockville, Md.). These cDNA's were produced and purified using standard methods (see, Sambrook, Fritsch, Maniatis (1989) Molecular Cloning a Laboratory Manual/Second Edition 1, 1.21-1.24, 1.74-1.81, hereinafter in this Example, "Maniatis a") using Qiagen plasmid purification kits (Qiagen Inc., Chatsworth, Calif.). DNA concentration and purity were determined by absorbance at 280 nm and 260 nm. Specific DNA inserts were cut out by standard methods using restriction enzymes, and subsequently separated on agarose gels as in Maniatis (see, Sambrook, Fritsch, Maniatis (1989) Molecular Cloning a Laboratory Manual/Second Edition 1, 6.9-6.15, hereinafter in this Example, "Maniatis b"). cDNA probes were further purified for [^32 P] labeling using the Geneclean II DNA purification kit (BIO 101, Inc., La Jolla, Calif.). Probes were labeled with dCTP-α-^32 P (Amersham Corp., Arlington Heights, Ill.) by random primer labeling, using the Prime-a-GeneLabeling System (Promega Corp., Madison, Wis.).
Analysis and quantification of mRNA: IDO mRNA was detected by Northern blot analysis (see Maniatis a, p. 7.39-7.51) using standard methods. […] Quantification of IDO mRNA was carried out using a phosphorimager (Molecular Dynamics) in which density (i.e., amount of RNA) is expressed as relative phosphorimager units. […] GAPD mRNA measurement by phosphorimager quantification of Northern blots serves as a means to normalize for potential sample to sample differences in the amount of total RNA loaded on gels. […]

[4] = tested on: ChAT activity of basal forebrain cultures; assay: Basal Forebrain ChAT Activity Assay; format: cell-based, rat; conditions: Rattus norvegicus, 120 h, read-out: ChAT Activity (% of Control)
Summary of the method: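 Basal forebrain neurons from E17–18 rat embryos were Dispase-dissociated and plated at 5×10^4 cells/well on poly-ornithine/laminin. Cultures were kept in serum-free N2 medium with 0.05% BSA at 37° C. ChAT activity was measured 5 days after plating as the read-out for compound-induced increase.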

[5] = biological target: trkA tyrosine kinase (Homo sapiens, UniProt P04629); assay: trkA Tyrosine Kinase Activity Inhibition Assay (ELISA); format: biochemical; conditions: 16 μM ATP, 37° C., 15 min; read-out: INHIBITION OF trkA KINASE IC50
trkA tyrosine kinase, sequence (P04629 33-796): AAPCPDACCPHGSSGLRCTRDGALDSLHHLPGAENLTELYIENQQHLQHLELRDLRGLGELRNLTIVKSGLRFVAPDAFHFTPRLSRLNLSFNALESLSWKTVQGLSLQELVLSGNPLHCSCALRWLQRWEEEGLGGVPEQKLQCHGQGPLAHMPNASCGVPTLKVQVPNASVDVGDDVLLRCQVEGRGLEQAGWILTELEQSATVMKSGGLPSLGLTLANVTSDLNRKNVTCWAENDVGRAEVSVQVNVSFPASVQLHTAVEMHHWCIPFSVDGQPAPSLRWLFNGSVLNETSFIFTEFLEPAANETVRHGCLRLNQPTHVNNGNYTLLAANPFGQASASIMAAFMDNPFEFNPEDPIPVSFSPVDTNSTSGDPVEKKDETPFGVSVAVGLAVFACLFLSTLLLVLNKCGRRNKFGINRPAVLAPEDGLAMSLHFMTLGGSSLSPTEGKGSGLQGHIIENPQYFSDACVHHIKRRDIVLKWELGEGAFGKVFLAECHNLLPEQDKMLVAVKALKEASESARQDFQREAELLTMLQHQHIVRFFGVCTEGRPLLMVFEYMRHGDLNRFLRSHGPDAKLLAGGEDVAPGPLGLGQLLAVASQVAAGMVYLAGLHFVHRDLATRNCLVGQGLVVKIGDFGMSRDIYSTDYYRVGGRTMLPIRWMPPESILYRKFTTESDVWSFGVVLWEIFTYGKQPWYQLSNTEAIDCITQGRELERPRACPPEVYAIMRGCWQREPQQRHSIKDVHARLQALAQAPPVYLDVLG
Protocol: These compounds were then tested for the ability to inhibit substrate phosphorylation by the trkA tyrosine kinase.
Plates were washed three times with TBST, followed by two washes with TBS (TBST sans Tween-20). Fused pyrrolocarbazoles were then added at various concentrations to a reaction mixture (50 mM HEPES, pH 7.4, 5 mM MnCl2, 5 mM MgCl2, 140 mM NaCl, 16 μM ATP, and 15 ng trkA in a total volume of 1001 μL.). As a negative control, 100 mM EDTA was included in the reaction solution. The plates were then incubated at 37° C. for 15 min. The detection antibody, monoclonal anti-phosphotyrosine antibody (UBI), was added at a dilution of 1:2000 in TBST, and incubated for 1 hour at 37° C. Plates were then washed three times with TBST, followed by a 1 hour incubation at 37° C. with alkaline phosphatase-labeled goat anti-mouse IgG (1:2000 in TBST (Bio-Rad)). After washing three times with TBST followed by two washes with TBS, a colored product was produced by using NADPH as substrate for alkaline phosphatase, and the coupled reactions of diaphorase and alcohol dehydrogenase (GIBCO-BRL ELISA amplification system). The colored product was read at 490 nm in a microplate reader (Biotek).

[6] = tested on: AT-2 cells; assay: Inhibition of Growth of Prostate Cancer Cell Line (MTS assay); format: cell-based; conditions: 72 h; 3 days, MTS; read-out: AT-2 cell growth IC50
Protocol: AT-2 cells are a prostate cancer cell sub-line derived from the Dunning H tumor, graciously provided to us by Dr. John Isaacs (John Hopkins, M. D.). Unlike the Dunning H tumor cells, AT-2 cells can be grown in vitro.
Methods: At-2 cells ([…]) were plated on tissue culture plastic in 96-well plates in the presence of RPMI-1640 medium containing 10% fetal calf serum, 250 nM dexamethasone, 2 mM glutamine, 1 mM sodium pyruvate, and penicillin/streptomycin antibiotics. The next day, compounds were added at 4 concentrations (10, 1, 0.1, 0.01 μM) to determine the approximate IC50 range. Cultures were assayed 3 days later for cell number using the MTS [(3-(4,5-dimethylthiazol-2-yl)-5-(3-carboxymethoxyphenyl)-2-(4-sulfophenyl)-2H-tetrazolium, inner salt)] assay. The MTS assay (purchased as a kit from Promega) measures the formation of an aqueous soluble formazan (detected by a plate reader at 490nm) produced by the bioreduction of a tetrazolium compound (MTS) in metabolically active cells via mitochondrial succinate dehydrogenase. After determining linearity of the substrate incubation time over a range of cell plating densities, the amount of product measured is directly proportional to cell number. MTS (333 ug/ml) and 25 μM phenazine methosulfate are mixed and added directly to the culture medium, and incubated at 37° C. in the 5% CO2 /95% air incubator for 0.5-4 h. Absorbance of the product at 490 nm is read on the BIO-TEK plate reader. Background values were obtained from wells containing culture medium with substrate solution, but no cells. In addition, values were also obtained from wells containing cells plated at day 0 and assayed on the day compound was added (day 1) in order to determine the number of cells at the time compound was added. After the initial dose-finding experiment was completed, subsequent experiments were set up so that there were 3 or more concentrations near the predicted IC50.

[7] = tested on: chick DRG neurons; assay: DRG Neuron Survival Assay (calcein AM); format: cell-based; conditions: Gallus gallus, DRG neuron, 48 hours, read-out: Neuronal Survival (% of Control)
Protocol: Fused pyrrolocarbazoles promoted dorsal root ganglion (DRG) neuronal survival in cultures of chick DRG neurons. Cell survival was measured by uptake of calcein AM, an analog of the viable dye, fluorescein diacetate. Calcein is taken up by viable cells and cleaved intracellularly to fluorescent salts which are retained by intact membranes of viable cells. Microscopic counts of viable neurons correlate directly with relative fluorescence values obtained with the fluorimetric viability assay. This method thus provides a reliable and quantitive measurement of cell survival in the total cell population of a given culture (Bozyczko-Coyne et al., J. Neur. Meth. 50:205-216, 1993).
Methods: Dorsal root ganglia were dissected from embryonic age day 9 chick embryos and dissociated cells prepared by subsequent Dispase (neutral protease, Collaborative Research) dissociation. Neurons were seeded at low density (3×10^4 cells/cm^2) into 96 well poly-L-ornithine and laminin coated plates. Cells were cultured for 48 hours in serum-free N2 medium (Bottenstein and Sato, 1979) at 37° C. in a humidified atmosphere, 5% CO2 /95% air. Cell survival was assessed at 48 hours using the viable fluorimetric assay described above.

[8] = tested on: lumbar motoneurons of chick embryos; assay: Inhibition of Motoneuron Death In Ovo; format: in vivo; conditions: for Number of motoneurons mean ± SD / % of motoneurons rescued versus control: E6-E9; for Number of motoneurons mean ± SD: one side of spinal cord
Protocol: The samples (50 ul) were applied to the vascularized chorioallantoic membrane through a window in the egg shell as previously described (Oppenheim et al., 1988). Embryos were sacrificed on E10 and spinal cords were removed, fixed in Carnoy's solution (10% acetic acid, 60% ethanol, 30% chloroform), embedded in paraffin, sectioned at 8 um, and stained with thionin as described previously (Oppenheim et al., 1988). Motoneurons (identified by morphology and position) were counted by an individual blind to the treatment conditions in every tenth section according to previously established criteria (Oppenheim et al., 1982, Oppenheim, 1986).

O=C1NCc2c3c(c4[nH]c5ccc(Br)cc5c4c21)Cc1ccccc1-3 [Compound I-11, 3-Bromo-6H, 7H, 12H, 13H -indeno[2,3-a]pyrrolo[3,4-carbazole-5(5H)one]
Spinal Cord ChAT Activity, % of Control, untreated cultures [1]: 188 % of Control | IC50 [2]: 450 nM | mrna remaining at 0.4 µM [3]: 49%

O=C1NCc2c1c1c(c3c2c2ccccc2n3CCO)Cc2ccccc2-1 [Compound I-29, 13-(2-Hydroxyethyl)-5H,6H,12H,13H-indeno[2,3-a]pyrrolo[3,4-c]carbazole-7(7H)one]
Spinal Cord ChAT Activity, % of Control, untreated cultures [1]: 154 % of Control | activity at 0.1 µM ([4]; 100 nM): 140% | activity at 0.25 µM ([4]; 250 nM): 189% | activity at 0.5 µM ([4]; 500 nM): 194% | activity at 1 µM ([4]; 1000 nM): 210% | IC50 [2]: 40 nM | IC50 [5]: 18.4 nM | mrna remaining at 0.2 µM ([3]; compound 200 nM, IFNγ 200 units/ml): 57% | IC50 [6]: 3260 nM

O=C1NCc2c1c1c(c3[nH]c4ccc(C=Cc5ccccn5)cc4c23)Cc2ccccc2-1 [Compound I-32, 3-(2-Pyridinylethenyl)-5H,6H,12H,13H-indeno[2,3-a]pyrrolo[3,4-c]carbazole-7(7H)-one]
Spinal Cord ChAT Activity, % of Control, untreated cultures [1]: 288 % of Control | viability at 0.1 µM ([7]; 100 nM): 173% | viability at 0.25 µM ([7]; 250 nM): 164% | viability at 0.5 µM ([7]; 500 nM): 151% | IC50 [5]: > 1000 nM | mrna remaining at 0.4 µM [3]: 70% | Number of motoneurons mean ± SD ([8]; 0.06 ug/egg daily): 9657 ± 529 | % of motoneurons rescued versus control ([8]; 0.3 ug/egg daily): 8% | Number of motoneurons mean ± SD ([8]; 0.3 ug/egg daily): 10215 ± 481 | % of motoneurons rescued versus control ([8]; 0.6 ug/egg daily): 31% | Number of motoneurons mean ± SD ([8]; 0.6 ug/egg daily): 12357 ± 499 | increase in motoneuron survival in treated vs. control embryos, maximal effect ([8]; 0.6 ug/egg, vehicle-treated control): 31% | % of motoneurons rescued versus control ([8]; 1.2 ug/egg daily): 24% | Number of motoneurons mean ± SD ([8]; 1.2 ug/egg daily): 11743 ± 1497 | dose at which the maximal effect was achieved ([8]; daily dose): 0.6 ug/egg
